The species named for experiment [1] is Rattus norvegicus. Nature of the experiment: In vitro inhibition of serotonin (5-HT) uptake in crude rat brain synaptosomes. Format: functional, organism-based.
The species named for experiment [2] is Rattus norvegicus. Nature of the experiment: In vitro inhibition of norepinephrine (NE) uptake in crude rat brain synaptosomes. It is filed as functional, organism-based.
For experiment [3], the species on record is Rattus norvegicus. In words: In vitro inhibition of norepinephrine (NE) uptake in crude rat brain synaptosomes (% inhibition at maximum concentration).

The structures appear in SMILES notation.

As to `CN[C@@H]1CCC(c2ccccc2)c2ccccc21` (stereo partly drawn), the IC50 (usually the point on the concentration scale where inhibition reaches its midpoint) in the experiment filed under Rattus norvegicus [1] was found to be 840 nM; in the experiment listed under Rattus norvegicus [2] it was 18 nM.

With `CNCCC(Oc1ccc(C(F)(F)F)cc1)c1ccccc1` (stereo not drawn) [FLUOXETINE], the results for the IC50 in the experiment listed under Rattus norvegicus [1] and in the experiment filed under Rattus norvegicus [3] were 70 nM and over 10000 nM, respectively.

Turning to `CNCCCOc1ccc(C(F)(F)F)cc1`, the IC50 in the experiment filed under Rattus norvegicus [1] is 3000 nM; in the experiment filed under Rattus norvegicus [2] it was over 10000 nM.

For the molecule `NC12CCC(c3ccc(Br)cc3)(CC1)CC2`, the results for the concentration for half-maximal inhibition (IC50) in the experiment listed under Rattus norvegicus [1] and in the experiment filed under Rattus norvegicus [2] were 680 nM and 54000 nM, respectively.

`CC(N)C(=O)OC(C)(C)Cc1ccc(Cl)cc1` (stereo not drawn) [ALAPROCLATE]: the IC50 is 700 nM in the experiment listed under Rattus norvegicus [1] and over 34000 nM in the experiment filed under Rattus norvegicus [2].

In the case of `NC12CCC(c3ccccc3)(CC1)CC2`, the IC50 in the experiment filed under Rattus norvegicus [1] was determined as 95 nM; in the experiment listed under Rattus norvegicus [2], 80 nM.

`CNCC[C@@H](Oc1ccccc1C)c1ccccc1` [ATOMOXETINE]: the concentration for half-maximal inhibition (IC50) in the experiment filed under Rattus norvegicus [1] was found to be 1500 nM; in the experiment filed under Rattus norvegicus [2], 4 nM.

As for `CNCCC(Oc1ccccc1OC)c1ccccc1` (stereo not drawn) [NISOXETINE], the IC50 in the experiment filed under Rattus norvegicus [1] came to 2000 nM; in the experiment filed under Rattus norvegicus [2], 10 nM.

As to `COc1ccc(OC[C@H]2CN(C)CC[C@@H]2c2ccccc2)cc1` [FEMOXETINE], the figures for the IC50 in the experiment listed under Rattus norvegicus [1] and in the experiment filed under Rattus norvegicus [2] were 8.3 nM and 410 nM, respectively.
